The values that follow come from ChEMBL document CHEMBL1201862, “PubChem BioAssay data set” (2004).

Test systems include Hs-578T; SF-268; BT-549; NCI-H226; NCI-H23; OVCAR-5; PC-3; TK-10; SNB-75; NCI/ADR-RES; SK-MEL-28; OVCAR-4; 786-0; SK-OV-3; DU-145; K562; MDA-N; M14; COLO 205.
Common to all, as to assay: inhibition of tumour cell growth, NCI panel, 48 h

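Tested at 5 concentrations; 48 h exposure; 96-well plates; endpoints linearly interpolated, else capped at highest concentration. GI50: concentration for 50% inhibition of growth.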 The source made the active and inactive calls. Cut-off read from the data, not from the text of the source: active = GI50 up to about 1.1 µM and inactive = higher. Non-standard residues stand in square brackets, D forms with d. Residues, ends and D or L forms follow the SMILES beside them. *: point of attachment. hSer = N[CH](CCO)C(=O)O; Boc = CC(C)(C)OC(=O)* Where only a bound is given, the exact number is not on record here.

For the compound `Cc1nc(N)nc2ccccc12`, the GI50 in the assay on Hs-578T is > 100 µM (inactive); with SF-268, > 100 µM (inactive); in the assay on BT-549 it was > 100 µM (inactive); in the assay with NCI-H226, 0.172 µM (active); in the assay with NCI-H23, > 100 µM (inactive); with OVCAR-5 it was > 100 µM (inactive). The GI50 in the assay with PC-3 was > 100 µM (inactive); with TK-10, > 100 µM (inactive); in the assay on SNB-75, 60 µM (inactive); with NCI/ADR-RES, > 100 µM (inactive); with SK-MEL-28, > 100 µM (inactive); in the assay on OVCAR-4, > 100 µM (inactive). Further, the GI50 in the assay with 786-0, in the assay with SK-OV-3, in the assay on DU-145, with K562, with MDA-N and in the assay with M14 was > 100 µM (inactive) each time.
In the case of `Nc1c(OCC(=O)O)ccc2cc(S(=O)(=O)O)ccc12`, the GI50 in the assay with Hs-578T, in the assay on COLO 205, in the assay on SF-268, with BT-549, in the assay on NCI-H226 and with NCI-H23 was > 100 µM (inactive) throughout. In addition, the GI50 in the assay with PC-3, in the assay on TK-10, in the assay with SNB-75, with NCI/ADR-RES, in the assay with SK-MEL-28 and in the assay with OVCAR-4 was > 100 µM (inactive) throughout. Also, the GI50 in the assay on 786-0, in the assay with SK-OV-3, with DU-145, in the assay on K562, in the assay on MDA-N and with M14 was > 100 µM (inactive) in each case.
As to `O=C1NC2(CN3CCC2CC3)C(=O)N1CN(Cc1ccccc1)c1ccccc1` (configuration not stated), the GI50 was > 100 µM (inactive) in the assay on Hs-578T; 92.7 µM (inactive) in the assay on COLO 205; 37.6 µM (inactive) in the assay on SF-268; > 100 µM (inactive) in the assay with BT-549; > 100 µM (inactive) in the assay with NCI-H226; 44.4 µM (inactive) in the assay on NCI-H23. Also, the GI50 in the assay on OVCAR-5, in the assay with PC-3, in the assay with TK-10, in the assay with SNB-75, in the assay with NCI/ADR-RES and with SK-MEL-28 was > 100 µM (inactive) each time. The GI50 in the assay on OVCAR-4 is > 100 µM (inactive); with 786-0, > 100 µM (inactive); in the assay with SK-OV-3, > 100 µM (inactive); with DU-145, 48.4 µM (inactive); with MDA-N, > 100 µM (inactive); in the assay with M14, 33.7 µM (inactive).
In the case of `N#CCCN(CCC#N)c1ccc(/C=C2\N=C(c3ccccc3)N(c3ccc(F)cc3)C2=O)cc1`, the GI50 in the assay on Hs-578T, in the assay on COLO 205, in the assay on SF-268, in the assay with BT-549, in the assay on NCI-H226 and in the assay with OVCAR-5 was > 100 µM (inactive) each time. Further, the GI50 in the assay with PC-3, in the assay on TK-10, in the assay with SNB-75, in the assay on NCI/ADR-RES, with SK-MEL-28 and with OVCAR-4 was > 100 µM (inactive) throughout. Also, the GI50 in the assay on 786-0, with SK-OV-3, in the assay on DU-145, in the assay with K562, in the assay on MDA-N and in the assay with M14 was > 100 µM (inactive) throughout.
Turning to `Cc1cccc2nc3c(=O)[nH]c(=O)nc-3n(C)c12`, the GI50 with Hs-578T was 86.9 µM (inactive); with COLO 205, 30.2 µM (inactive); in the assay with SF-268, 50.4 µM (inactive); with BT-549, 84.9 µM (inactive); with NCI-H226 it was > 100 µM (inactive); in the assay on NCI-H23, 39.1 µM (inactive). Further, the GI50 in the assay on OVCAR-5 is > 100 µM (inactive); in the assay with PC-3, 66.7 µM (inactive); in the assay with TK-10, > 100 µM (inactive); with SNB-75 it was > 100 µM (inactive); with NCI/ADR-RES it was 82.2 µM (inactive); in the assay on SK-MEL-28, > 100 µM (inactive). Further, the GI50 with OVCAR-4 is 45.5 µM (inactive); in the assay on 786-0, 99.3 µM (inactive); in the assay with SK-OV-3, > 100 µM (inactive); in the assay on DU-145 it was > 100 µM (inactive); in the assay on K562, 46.6 µM (inactive); in the assay with MDA-N, 62.1 µM (inactive). For the same compound, the GI50 in the assay with M14 is 37.8 µM (inactive).
`CC12CCC([C@H](C(O)C3CCCCC3)C1=O)C2(C)C` (some centres not stated): the GI50 with Hs-578T, with COLO 205, in the assay on SF-268, in the assay on BT-549, in the assay on NCI-H226 and in the assay with NCI-H23 was > 100 µM (inactive) each time. For the same compound, the GI50 in the assay with OVCAR-5, in the assay on PC-3, in the assay with TK-10, in the assay on SNB-75, in the assay with NCI/ADR-RES and in the assay with OVCAR-4 was > 100 µM (inactive) in each case. The GI50 in the assay on 786-0 was > 100 µM (inactive); in the assay on SK-OV-3, > 100 µM (inactive); in the assay on DU-145 it was > 100 µM (inactive); with K562, 63 µM (inactive); in the assay on MDA-N, > 100 µM (inactive); with M14, > 100 µM (inactive).
Regarding `C=CCN(C(=O)OC(C)(C)C)C1=CC2C(C)=CN(S(=O)(=O)c3ccccc3)C2C(OCc2ccccc2)=C1` (configuration not stated), the GI50 in the assay with Hs-578T, in the assay with COLO 205, with BT-549, in the assay with NCI-H226, in the assay with NCI-H23 and with OVCAR-5 was > 100 µM (inactive) throughout. Also, the GI50 with PC-3 was > 100 µM (inactive); with TK-10, > 100 µM (inactive); in the assay on SNB-75, 6.18 µM (inactive); with NCI/ADR-RES, > 100 µM (inactive); in the assay on SK-MEL-28, > 100 µM (inactive); in the assay with OVCAR-4, > 100 µM (inactive). Further, the GI50 in the assay on 786-0 is > 100 µM (inactive); in the assay with SK-OV-3 it was > 100 µM (inactive); in the assay with DU-145 it was > 100 µM (inactive); in the assay with K562, 7.59 µM (inactive); with MDA-N, > 100 µM (inactive); with M14 it was > 100 µM (inactive).
With `CC1(C)CC(=O)C(=CN2C(=O)CNC2=S)C(=O)C1`, the GI50 in the assay on Hs-578T, in the assay with COLO 205, in the assay on SF-268, in the assay with BT-549, in the assay on NCI-H226 and with NCI-H23 was > 100 µM (inactive) each time. Also, the GI50 with OVCAR-5, in the assay on PC-3, in the assay on TK-10, in the assay with SNB-75, in the assay on NCI/ADR-RES and in the assay with OVCAR-4 was > 100 µM (inactive) throughout. The GI50 with 786-0, in the assay on SK-OV-3, in the assay on DU-145, in the assay with MDA-N and with M14 was > 100 µM (inactive) in each case.
With `CCOC(=O)c1[nH]c2ccccc2c1C(=O)C[C@H](NC(=O)C(F)(F)F)C(=O)OC`, the GI50 with Hs-578T, in the assay on COLO 205, in the assay on SF-268, in the assay with BT-549, in the assay with NCI-H226 and in the assay with NCI-H23 was > 100 µM (inactive) throughout. Moreover, the GI50 is > 100 µM (inactive) in the assay with OVCAR-5; > 100 µM (inactive) in the assay on PC-3; > 100 µM (inactive) with TK-10; > 100 µM (inactive) in the assay on SNB-75; 84.1 µM (inactive) in the assay on NCI/ADR-RES; > 100 µM (inactive) in the assay with SK-MEL-28. The GI50 with OVCAR-4, with 786-0, with DU-145, in the assay with K562, in the assay with MDA-N and in the assay with M14 was > 100 µM (inactive) each time.
Consider `COCCC(NC(=O)C(CC(C)C)NC(=O)OC(C)(C)C)C(N)=O` (stereo not drawn) (Boc-Leu-[hSer](Me)-NH2; configuration not given here), for which the GI50 in the assay on Hs-578T, in the assay on COLO 205, in the assay with SF-268, in the assay on BT-549, in the assay on NCI-H226 and in the assay with PC-3 was > 100 µM (inactive) in each case. Moreover, the GI50 in the assay with TK-10, in the assay on SNB-75, with NCI/ADR-RES, with SK-MEL-28, in the assay with OVCAR-4 and with 786-0 was > 100 µM (inactive) throughout. Moreover, the GI50 in the assay on SK-OV-3, in the assay on DU-145, in the assay with K562, with MDA-N and in the assay on M14 was > 100 µM (inactive) each time.
For the compound `CC(C(=O)O)c1ccc(-c2ccccc2)c(F)c1` (configuration not stated) [FLURBIPROFEN], the GI50 with Hs-578T, in the assay with COLO 205, with SF-268, in the assay on BT-549, in the assay on NCI-H226 and in the assay with OVCAR-5 was > 100 µM (inactive) in each case. Moreover, the GI50 in the assay on PC-3, in the assay with TK-10, in the assay with SNB-75, with NCI/ADR-RES, in the assay with SK-MEL-28 and in the assay with OVCAR-4 was > 100 µM (inactive) in each case. For the same compound, the GI50 in the assay with 786-0, with SK-OV-3, in the assay on DU-145, in the assay on K562, in the assay with MDA-N and with M14 was > 100 µM (inactive) throughout.
